This note sets out measurements from PubChem BioAssay (NCI).

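Protocol summary: plate cells (96-well), add compound at 5 concentrations, incubate 48 h, interpolate endpoints linearly. Abbreviation: GI50, concentration required for 50% inhibition of growth. TGI: total growth inhibition.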 Where only a bound is given, the exact number is not on record here.

One experiment deals with RPMI-8226 leukemia. In words: NCI anticancer screen, dose series, 48 h.
With `COc1cccc(-c2nc(-c3ccc(NC(=O)C(C)C)cc3)[nH]c2-c2ccnc(Br)c2)c1`, the GI50 was 0.511 µM and the TGI was found to be 2.85 µM.

With `C=C1C(=O)O[C@H]2[C@H]1CC/C(COC(=O)c1c[nH]c3ccccc13)=C\CC[C@@]1(C)O[C@@H]21`, the GI50 was 0.0404 µM and the TGI is 0.281 µM.

The test system of the next experiment is HCT-15 colon. In words: NCI anticancer screen, dose series, 48 h.
In turn, `CCOC(=O)c1cc2nc3ccccc3c(=O)n2c2ccccc12` came in with a TGI of over 10 µM.

Turning to `CCN1CCN(c2nc(C)cc(N(CCNc3ccnc4cc(Cl)ccc34)Cc3ccc4c(c3)OCO4)n2)CC1`, the GI50 was 1.46 µM and the TGI was 3.26 µM.

Compound `COc1c(Cl)c(=O)oc2ccc(Cl)cc12` had a TGI of over 100 µM.

Consider `NS(=O)(=O)c1cc(Br)c(N=Nc2ccc(O)c3ncccc23)c(Br)c1`, for which the TGI was over 100 µM.

With `Cc1cc(I)cc(CN(C)CCCN2CCCCC2)c1O`, the GI50 was 10.3 µM and the TGI amounted to 30.7 µM.

For the compound `CN(C(=O)c1ccc(C(F)(F)F)cc1)c1ccc(Oc2ccc3c(c2)cc(C(=O)N2CCN(Cc4ccc(OC(F)F)cc4)CC2)n3C)nc1`, the GI50 is over 100 µM and the TGI is over 100 µM.

Take `CCCCCCCCC/C=C1\CCC(CN2CCOCC2)C1=O` (stereo unspecified): the TGI was found to be 7.05 µM.

`Cc1ccccc1S(=O)(=O)OC1NS(=O)(=O)c2ccccc21` (stereo unspecified) came in with a TGI of over 100 µM.

As for `O=C(/C=C/c1ccncc1)c1cc(Cl)ccc1O`, the GI50 was 22.4 µM and the TGI amounted to 63.8 µM.

With `Nc1ncnc2n[nH]c(Nc3ccc(F)cc3)c12`, the GI50 was 8.6 µM and the TGI is over 100 µM.

With `CCN(CC)c1ccc(-c2cc(-c3cc(OC)c(OC)c(OC)c3)nc(N3CCOCC3)c2C#N)cc1`, the GI50 is 0.584 µM and the TGI is over 66.6 µM.

In the case of `CC(=O)OC1=CC(n2cc(F)c(=O)[nH]c2=O)OC(C)C1=O` (stereo unspecified), the TGI was over 100 µM.

In turn, `NC1(C(=O)OCc2ccccc2)CCCC1` gave a TGI of 60.8 µM.

As for `Cc1cc(/C=C/c2ccc3cc(N(C)C)ccc3[n+]2C)c(C)n1-c1ccccc1`, the GI50 is 1.31 µM and the TGI worked out at 6.3 µM.

With `Cn1cnc([N+](=O)[O-])c1S(=O)(=O)Oc1cccc2ccccc12`, the GI50 was 1.97 µM and the TGI worked out at 4.72 µM.

Regarding `O=C1c2cc3c(cc2-c2c1c1ccc(F)cc1c(=O)n2CCCNCCO)OCO3`, the GI50 is 0.0277 µM and the TGI amounted to 0.27 µM.

As to `C=C1C(=O)O[C@H]2[C@H]1CC/C(COC(=O)c1c[nH]c3ccccc13)=C\CC[C@@]1(C)O[C@@H]21`, the GI50 is 0.258 µM and the TGI is 0.773 µM.

A further experiment concerns HCT-116 colon. Kind of experiment: NCI anticancer screen, dose series, 48 h.
Compound `CCOC(=O)c1cc2nc3ccccc3c(=O)n2c2ccccc12` registered a TGI of over 10 µM.

On to `CCN1CCN(c2nc(C)cc(N(CCNc3ccnc4cc(Cl)ccc34)Cc3ccc4c(c3)OCO4)n2)CC1`, for which the GI50 is 1.38 µM and the TGI worked out at 3.51 µM.

For `COc1c(Cl)c(=O)oc2ccc(Cl)cc12`, the TGI was over 100 µM.

In turn, `NS(=O)(=O)c1cc(Br)c(N=Nc2ccc(O)c3ncccc23)c(Br)c1` displayed a TGI of over 100 µM.

In the case of `Cc1cc(I)cc(CN(C)CCCN2CCCCC2)c1O`, the GI50 is 9.24 µM and the TGI came out at 21.3 µM.

For the compound `CN(C(=O)c1ccc(C(F)(F)F)cc1)c1ccc(Oc2ccc3c(c2)cc(C(=O)N2CCN(Cc4ccc(OC(F)F)cc4)CC2)n3C)nc1`, the GI50 is under 0.01 µM and the TGI was over 100 µM.

Turning to `CCCCCCCCC/C=C1\CCC(CN2CCOCC2)C1=O` (stereo unspecified), the TGI is 4.04 µM.

Regarding `Cc1ccccc1S(=O)(=O)OC1NS(=O)(=O)c2ccccc21` (stereo unspecified), the TGI is over 100 µM.

On to `O=C(/C=C/c1ccncc1)c1cc(Cl)ccc1O`, for which the GI50 is 14.6 µM and the TGI was determined as 27.9 µM.

In the case of `Nc1ncnc2n[nH]c(Nc3ccc(F)cc3)c12`, the GI50 was 12.3 µM and the TGI was determined as 31.9 µM.

Take `CCN(CC)c1ccc(-c2cc(-c3cc(OC)c(OC)c(OC)c3)nc(N3CCOCC3)c2C#N)cc1`: the GI50 was 0.457 µM and the TGI turned out to be 21.1 µM.

Compound `CC(=O)OC1=CC(n2cc(F)c(=O)[nH]c2=O)OC(C)C1=O` (stereo unspecified) displayed a TGI of over 100 µM.

The compound `NC1(C(=O)OCc2ccccc2)CCCC1` displayed a TGI of 41.8 µM.

`Cc1cc(/C=C/c2ccc3cc(N(C)C)ccc3[n+]2C)c(C)n1-c1ccccc1`: the GI50 is 0.0908 µM and the TGI came out at 2.69 µM.

Turning to `Cn1cnc([N+](=O)[O-])c1S(=O)(=O)Oc1cccc2ccccc12`, the GI50 was 2.1 µM and the TGI was found to be 5.11 µM.

In the case of `O=C1c2cc3c(cc2-c2c1c1ccc(F)cc1c(=O)n2CCCNCCO)OCO3`, the GI50 was 0.019 µM and the TGI is 0.196 µM.

Turning to `COc1cccc(-c2nc(-c3ccc(NC(=O)C(C)C)cc3)[nH]c2-c2ccnc(Br)c2)c1`, the GI50 is 2.49 µM and the TGI came out at 7.8 µM.

For the compound `C=C1C(=O)O[C@H]2[C@H]1CC/C(COC(=O)c1c[nH]c3ccccc13)=C\CC[C@@]1(C)O[C@@H]21`, the GI50 is 0.193 µM and the TGI worked out at 0.459 µM.

The next experiment deals with HOP-92 NSCLC. Kind of experiment: NCI anticancer screen, dose series, 48 h.
For the compound `CCOC(=O)c1cc2nc3ccccc3c(=O)n2c2ccccc12`, the TGI was over 10 µM.

In the case of `CCN1CCN(c2nc(C)cc(N(CCNc3ccnc4cc(Cl)ccc34)Cc3ccc4c(c3)OCO4)n2)CC1`, the GI50 was 1.17 µM and the TGI is 2.67 µM.

Regarding `COc1c(Cl)c(=O)oc2ccc(Cl)cc12`, the TGI was over 100 µM.

`NS(=O)(=O)c1cc(Br)c(N=Nc2ccc(O)c3ncccc23)c(Br)c1` had a TGI of over 100 µM.

On to `Cc1cc(I)cc(CN(C)CCCN2CCCCC2)c1O`, for which the GI50 was 11.6 µM and the TGI is 38.6 µM.

Take `CN(C(=O)c1ccc(C(F)(F)F)cc1)c1ccc(Oc2ccc3c(c2)cc(C(=O)N2CCN(Cc4ccc(OC(F)F)cc4)CC2)n3C)nc1`: the GI50 was 3.02 µM and the TGI was over 88.2 µM.

Compound `CCCCCCCCC/C=C1\CCC(CN2CCOCC2)C1=O` (stereo unspecified) had a TGI of 7.4 µM.

Take `Cc1ccccc1S(=O)(=O)OC1NS(=O)(=O)c2ccccc21` (stereo unspecified): the TGI is over 100 µM.
